pIC50: −log10 of the molar value. ≈ marks a conversion by molar mass, not a printed value. Like-named read-outs stand apart in the source and are kept apart here.
Assays:
E. coli K12 tolC::Tn10 = test: General antimicrobial activity assay (CLSI broth microdilution); type: cell-based, Escherichia coli
Experimental: (§1) Whole-cell antimicrobial activity was determined by broth microdilution using the Clinical and Laboratory Standards Institute (CLSI) recommended procedure, Document M7-A7, “Methods for Dilution Susceptibility Tests for Bacteria that Grow Aerobically”.

E. coli K12 = test: as above; type: cell-based, Escherichia coli
Experimental: as §1

P. aeruginosa PA01 = test: as above; type: cell-based, Pseudomonas aeruginosa
Experimental: as §1

A. baumannii ATCC 17978 = test: as above; type: cell-based, Acinetobacter baumannii
Experimental: as §1

[1] = system: M. tuberculosis standard strain Mtb H37Rv; test: MIC determination against mycobacteria (resazurin, Middlebrook 7H9); type: cell-based, Mycobacterium tuberculosis
Mtb LeuRS = Mtb LeuRS (Mycobacterium tuberculosis, UniProt P9WFV1); test: biochemical; parameters: species or system M. tuberculosis
[2] = system: M. tuberculosis clinical isolates; test: MIC against clinical strains (BACTEC MGIT 960 System); type: cell-based; details: Mycobacterium tuberculosis
Human cyto LeuRS = Human cyto LeuRS (Homo sapiens, UniProt Q9P2J5); test: LeuRS aminoacylation assay, IC50 determination; type: biochemical
[3] = Mycobacterium tuberculosis, H37RV; read-out: Mtb H37Rv MIC (B)

Sequence of Human cyto LeuRS (Q9P2J5 whole entry): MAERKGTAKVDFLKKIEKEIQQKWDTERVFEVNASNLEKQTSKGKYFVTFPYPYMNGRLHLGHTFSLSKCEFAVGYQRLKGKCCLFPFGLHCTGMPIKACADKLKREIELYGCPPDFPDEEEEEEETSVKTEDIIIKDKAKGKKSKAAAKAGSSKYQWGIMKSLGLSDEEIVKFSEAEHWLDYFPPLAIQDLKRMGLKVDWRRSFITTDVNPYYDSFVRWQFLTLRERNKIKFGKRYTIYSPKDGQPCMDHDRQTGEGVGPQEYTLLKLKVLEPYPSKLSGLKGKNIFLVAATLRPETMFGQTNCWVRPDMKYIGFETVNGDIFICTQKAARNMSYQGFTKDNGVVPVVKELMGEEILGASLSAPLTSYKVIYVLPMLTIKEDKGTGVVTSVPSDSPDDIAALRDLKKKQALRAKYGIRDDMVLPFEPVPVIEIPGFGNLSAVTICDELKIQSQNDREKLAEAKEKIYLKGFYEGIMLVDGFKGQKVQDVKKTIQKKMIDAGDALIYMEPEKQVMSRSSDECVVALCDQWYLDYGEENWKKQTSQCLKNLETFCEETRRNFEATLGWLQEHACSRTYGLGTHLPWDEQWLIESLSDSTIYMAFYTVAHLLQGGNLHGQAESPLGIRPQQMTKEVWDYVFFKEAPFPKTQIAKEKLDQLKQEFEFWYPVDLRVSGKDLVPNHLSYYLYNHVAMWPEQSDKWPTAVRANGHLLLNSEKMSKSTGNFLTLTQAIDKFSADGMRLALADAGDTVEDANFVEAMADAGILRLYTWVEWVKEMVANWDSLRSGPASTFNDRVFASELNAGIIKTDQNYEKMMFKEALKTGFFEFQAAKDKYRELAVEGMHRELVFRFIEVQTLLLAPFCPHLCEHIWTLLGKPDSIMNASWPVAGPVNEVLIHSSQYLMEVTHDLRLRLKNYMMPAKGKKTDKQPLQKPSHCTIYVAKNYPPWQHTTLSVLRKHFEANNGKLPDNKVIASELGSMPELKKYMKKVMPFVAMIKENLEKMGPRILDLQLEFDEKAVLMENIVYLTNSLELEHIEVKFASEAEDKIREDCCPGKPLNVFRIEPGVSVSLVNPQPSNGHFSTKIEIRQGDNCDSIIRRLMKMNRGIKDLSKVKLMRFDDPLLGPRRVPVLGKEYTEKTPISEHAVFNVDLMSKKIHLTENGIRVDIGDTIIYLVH
Sequence of Mtb LeuRS (P9WFV1 whole entry): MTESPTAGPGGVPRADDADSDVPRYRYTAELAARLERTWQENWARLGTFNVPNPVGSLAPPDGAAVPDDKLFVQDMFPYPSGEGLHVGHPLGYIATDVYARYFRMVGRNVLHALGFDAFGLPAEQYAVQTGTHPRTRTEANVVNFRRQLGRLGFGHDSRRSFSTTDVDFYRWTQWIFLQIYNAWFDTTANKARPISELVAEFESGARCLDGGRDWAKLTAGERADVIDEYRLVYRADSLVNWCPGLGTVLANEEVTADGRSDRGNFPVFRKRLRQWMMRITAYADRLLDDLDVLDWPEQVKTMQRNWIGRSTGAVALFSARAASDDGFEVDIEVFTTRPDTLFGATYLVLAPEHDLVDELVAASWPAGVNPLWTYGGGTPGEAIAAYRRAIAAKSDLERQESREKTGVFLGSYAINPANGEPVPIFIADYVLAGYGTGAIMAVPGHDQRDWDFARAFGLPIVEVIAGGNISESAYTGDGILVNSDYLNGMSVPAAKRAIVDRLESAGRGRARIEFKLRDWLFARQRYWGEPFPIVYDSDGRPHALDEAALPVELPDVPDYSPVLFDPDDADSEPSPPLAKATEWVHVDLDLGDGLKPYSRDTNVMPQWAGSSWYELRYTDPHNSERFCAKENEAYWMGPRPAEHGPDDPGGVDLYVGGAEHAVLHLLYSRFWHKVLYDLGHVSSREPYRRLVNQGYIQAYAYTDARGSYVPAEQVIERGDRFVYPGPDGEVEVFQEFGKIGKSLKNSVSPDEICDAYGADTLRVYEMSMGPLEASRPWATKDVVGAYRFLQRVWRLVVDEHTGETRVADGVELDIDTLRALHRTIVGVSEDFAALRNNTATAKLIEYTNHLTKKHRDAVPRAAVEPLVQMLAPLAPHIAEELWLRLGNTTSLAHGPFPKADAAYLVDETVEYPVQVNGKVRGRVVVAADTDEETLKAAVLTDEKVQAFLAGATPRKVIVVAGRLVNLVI

In the case of Cl.NC[C@H]1OB2OCCOc3ccc(Cl)c1c32 [Example 4, (S)-(3-chloro-7,8-dihydro-2H-1,6,9-trioxa-9a-borabenzo[cd]azulen-2-yl)methanamine hydrochloride], the “MIC: E. coli K12 tolC::Tn10” value (E. coli K12 tolC::Tn10) was 64 µg/mL, the “MIC: E. coli K12” value (E. coli K12) was 64 µg/mL and the “MIC: P. aeruginosa PA01” value (P. aeruginosa PA01) was 64 µg/mL. For the same molecule, the “MIC: A. baumannii ATCC 17978” value (A. baumannii ATCC 17978) was 64 µg/mL, the MIC ([1]; Mycobacterium tuberculosis, H37RV, read-out: Mtb H37Rv MIC (B)) was < 0.1 µM and the MIC ([1]; hydrochloride; read-out: Mtb H37Rv MIC (B)) was 0.08 µM. The “HepG2 cell 48 h Tox50 (A)” value (HepG2 cells) was >1000 µM, the pIC50 (Mtb LeuRS) was 6.83 and the MIC ([2]; read-out: measured MIC (breakdown), for 1 strain (EXAMPLE 2 and EXAMPLE 4), highest MIC) was 0.16 µM. For the same molecule, the MIC ([2]; read-out: measured MIC (breakdown), for 1 strain of 40 clinical isolates (lowest MIC, EXAMPLE 4)) was ≤ 0.2 µM, the MIC ([2]; read-out: measured MIC (breakdown), for 40 strains (EXAMPLE 2 and EXAMPLE 4)) was 0.08 µM and the MIC ([2]; strain 3, sensitive clinical isolate) was 0.04 µM. The MIC ([2]; strain 52, sensitive clinical isolate) was 0.08 µM, the MIC ([2]; strain 137, sensitive clinical isolate) was 0.08 µM and the MIC ([2]; strain 161, sensitive clinical isolate) was 0.31 µM. For the same molecule, the MIC ([2]; strain 169, sensitive clinical isolate) was 0.08 µM, the MIC ([2]; strain 192, sensitive clinical isolate) was 0.08 µM and the MIC ([2]; strain 199, sensitive clinical isolate) was 0.08 µM. For the same molecule, the MIC ([2]; strain 206, sensitive clinical isolate) was 0.08 µM, the MIC ([2]; strain 207, sensitive clinical isolate) was 0.08 µM and the MIC ([2]; strain 208, sensitive clinical isolate) was 0.08 µM. For the same molecule, the MIC ([2]; strain 223, sensitive clinical isolate) was 0.08 µM, the MIC ([2]; strain 231, sensitive clinical isolate) was 0.08 µM and the MIC ([2]; strain 237, sensitive clinical isolate) was 0.08 µM. For the same molecule, the MIC ([2]; strain 247, sensitive clinical isolate) was 0.08 µM, the MIC ([2]; strain 248, sensitive clinical isolate) was 0.08 µM and the MIC ([2]; strain 249, sensitive clinical isolate) was 0.08 µM. For the same molecule, the MIC ([2]; strain 250, sensitive clinical isolate) was 0.08 µM, the MIC ([2]; strain 253, sensitive clinical isolate) was 0.08 µM and the MIC ([2]; strain 255, sensitive clinical isolate) was 0.08 µM. The MIC ([2]; strain 256, sensitive clinical isolate) was 0.08 µM, the MIC ([2]; strain 257, sensitive clinical isolate) was 0.08 µM and the MIC ([2]; strain 261, sensitive clinical isolate) was 0.08 µM. For the same molecule, the MIC ([2]; strain 265, sensitive clinical isolate) was 0.08 µM, the MIC ([2]; strain 267, sensitive clinical isolate) was 0.08 µM and the MIC ([2]; strain 269, sensitive clinical isolate) was 0.08 µM. The MIC ([2]; strain 274, sensitive clinical isolate) was 0.16 µM, the MIC ([2]; strain 281, sensitive clinical isolate) was 0.08 µM and the MIC ([2]; strain 292, sensitive clinical isolate) was 0.08 µM. The MIC ([2]; strain 296, sensitive clinical isolate) was 0.08 µM, the MIC ([2]; strain 311, sensitive clinical isolate) was 0.08 µM and the MIC ([2]; strain 314, sensitive clinical isolate) was 0.08 µM. It also gave an MIC ([2]; strain 316, sensitive clinical isolate) of 0.08 µM, an MIC ([2]; strain 317, sensitive clinical isolate) of 0.08 µM and an MIC ([2]; strain 322, sensitive clinical isolate) of 0.08 µM. It also gave an MIC ([2]; strain 323, sensitive clinical isolate) of 0.08 µM, an MIC ([2]; strain 324, sensitive clinical isolate) of 0.08 µM and an MIC ([2]; strain 325, sensitive clinical isolate) of 0.16 µM. For the same molecule, the MIC ([2]; strain 326, sensitive clinical isolate) was 0.08 µM, the MIC ([2]; strain 327, sensitive clinical isolate) was 0.08 µM and the MIC ([2]; strain 328, sensitive clinical isolate) was 0.08 µM. For the same molecule, the MIC ([2]; strain 329, sensitive clinical isolate) was 0.08 µM, the MIC ([2]; strain 332, sensitive clinical isolate) was 0.08 µM and the MIC ([2]; strain 333, sensitive clinical isolate) was 0.08 µM. For the same molecule, the MIC ([2]; strain 337, sensitive clinical isolate) was 0.08 µM, the MIC ([2]; strain 356, sensitive clinical isolate) was 0.04 µM and the MIC ([2]; strain 357, sensitive clinical isolate) was 0.04 µM. The MIC ([2]; strain 358, sensitive clinical isolate) was 0.08 µM, the MIC ([2]; strain 361, sensitive clinical isolate) was 0.08 µM and the MIC ([2]; strain 362, sensitive clinical isolate) was 0.04 µM. It also gave an MIC ([2]; strain 370, sensitive clinical isolate) of 0.04 µM, an MIC ([2]; strain 371, sensitive clinical isolate) of 0.08 µM and an MIC ([2]; strain 374, sensitive clinical isolate) of 0.08 µM. The MIC ([2]; strain 385, sensitive clinical isolate) was 0.08 µM, the MIC ([2]; strain 391, sensitive clinical isolate) was 0.08 µM and the MIC ([2]; strain 424, sensitive clinical isolate) was 0.08 µM. For the same molecule, the MIC ([2]; strain 440, sensitive clinical isolate) was 0.08 µM, the MIC ([2]; strain 442, sensitive clinical isolate) was 0.08 µM and the MIC ([2]; strain 457, sensitive clinical isolate) was 0.04 µM. The MIC ([2]; strain 460, sensitive clinical isolate) was 0.08 µM, the MIC ([2]; strain 481, sensitive clinical isolate) was 0.08 µM and the MIC ([2]; strain 705, sensitive clinical isolate) was 0.16 µM. It also gave an MIC ([2]; strain 716, sensitive clinical isolate) of 0.08 µM, an MIC ([2]; strain 729, sensitive clinical isolate) of 0.08 µM and an MIC ([2]; strain 730, sensitive clinical isolate) of 0.08 µM. For the same molecule, the MIC ([2]; strain 731, sensitive clinical isolate) was 0.08 µM, the MIC ([2]; strain 733, sensitive clinical isolate) was 0.08 µM and the MIC ([2]; strain 734, sensitive clinical isolate) was 0.08 µM. The MIC ([2]; strain 736, sensitive clinical isolate) was 0.08 µM and the MIC ([2]; strain 737, sensitive clinical isolate) was 0.08 µM.
In the case of CCOc1ccc(Br)c2c1B(O)O[C@@H]2CN [Example C4-Br, reference compound], the “MIC: E. coli K12 tolC::Tn10” value (E. coli K12 tolC::Tn10) was 64 µg/mL (≈ 224 µM), the “MIC: E. coli K12” value (E. coli K12) was 64 µg/mL (≈ 224 µM) and the “MIC: P. aeruginosa PA01” value (P. aeruginosa PA01) was 64 µg/mL (≈ 224 µM). The “MIC: A. baumannii ATCC 17978” value (A. baumannii ATCC 17978) was 64 µg/mL (≈ 224 µM), the MIC [1, 3] was 0.1 µM (≈ 0.0286 µg/mL) and the pIC50 (Human cyto LeuRS) was 4.17. The “Selectivity Index (A/B)” value (HepG2 cells) was 320 and the “HepG2 cell 48 h Tox50 (A)” value (HepG2 cells) was 32 µM.
With CCOc1ccc(Cl)c2c1B(O)O[C@@H]2CN [Example C6-Cl, reference compound] the “MIC: E. coli K12 tolC::Tn10” value (E. coli K12 tolC::Tn10) was 64 µg/mL (≈ 265 µM), the “MIC: E. coli K12” value (E. coli K12) was 64 µg/mL (≈ 265 µM) and the “MIC: P. aeruginosa PA01” value (P. aeruginosa PA01) was 64 µg/mL (≈ 265 µM). For the same molecule, the “MIC: A. baumannii ATCC 17978” value (A. baumannii ATCC 17978) was 64 µg/mL (≈ 265 µM), the MIC [1, 3] was 0.1 µM (≈ 0.0241 µg/mL) and the pIC50 (Human cyto LeuRS) was 4.41. For the same molecule, the “Selectivity Index (A/B)” value (HepG2 cells) was 363 and the “HepG2 cell 48 h Tox50 (A)” value (HepG2 cells) was 36.3 µM.

Reference: US10526352B2, “Tricyclic benzoxaborole compounds and uses thereof” (GlaxoSmithKline Intellectual Property (No.2) Limited, priority 2013, dated 2020)
